Assay results as given in publication PMC3474771, “Evaluation of 14 Organic Solvents and Carriers for Screening Applications in Zebrafish Embryos and Larvae” (PLoS ONE, 2012).
Where two headings read alike, the source gives them in different places.

Tested on: zebrafish embryos and larvae
Details: for Maximum-tolerated concentration (MTC): highest concentration with no phenotypic abnormalities, followed to 9 dpf
Method: Zebrafish embryos of the AB wild-type strain (originally obtained from the Zebrafish International Resource Center, Eugene, Oregon, USA) were raised at 28°C. Zebrafish husbandry, embryo collection, and embryo and larva maintenance were performed as described, [21]. Toxicity assays were standardly performed in 24-well microtiter plates (wrapped with Parafilm to limit solvent evaporation) using 10 embryos per well in 1 ml of 0.3× Danieau's medium (17 mM NaCl, 2 mM KCl, 0.12 mM MgSO4, 1.8 mM Ca(NO3)2 and 1.5 mM HEPES, pH 7.6). Each experiment was repeated 3 times for a total of 30 embryos or larvae analyzed per solvent per developmental staged tested. Data were only recorded for experiments in which the percentage of normal embryos or larvae in the control group was at least 90%. […] In determining the maximum tolerated concentration (MTC) for each solvent and carrier, all post-exposure embryos and larvae were allowed to develop in larva medium to 9 dpf, so as to detect any deleterious effects appearing after this 24-hour window. Solvents and carriers were obtained from the following suppliers: acetone (Chemlab, Zedelgem, Belgium), acetonitrile (Acros Organics, Geel, Belgium), albumin (BSA, Sigma-Aldrich, Bornem, Belgium), butanone (Riedel-de Haën, Seelze, Germany), cyclodextrin (2- hydroxypropyl-beta-cyclodextrin, Sigma-Aldrich), dimethyl formamide (Acros), DMSO (Agros), ethanol (Fisher Scientific, Doornik, Belgium), glycerol (Acros), isopropanol (Chemlab), methanol (Chemlab), polyethylene glycol-400 (Fluka, Bornem, Belgium), propylene glycol (Certa, Eigenbrakel, Belgium), solketal (Merck, Overijse, Belgium). Statistical analyses were done using chi-square in Microsoft Excel.
Twelve solvents and 2 carriers – chosen based solely on their potential utility for the solubilization and delivery of a structurally diverse range of small molecules – were analyzed for their effects on zebrafish embryos and larvae. The solvents included acetone, acetonitrile, butanone, dimethyl formamide, DMSO, ethanol, glycerol, isopropanol, methanol, polyethylene glycol (PEG-400), propylene glycol, and solketal, and the carriers included albumin (BSA) and cyclodextrin (2-hydroxypropyl-beta-cyclodextrin, or HPBCD). […] For this initial study, the effects of a 24-hour exposure to each solvent and carrier was analyzed using embryos and larvae at the following developmental stages: 2–4 cell, 4 hours-post fertilization (hpf), and 1, 2, 3, 4, and 7 days post-fertilization (dpf).

[1] = 24 hours exposure from 2–4 cell stage
[2] = exposure for 24 hours beginning at 1 dpf
[3] = exposure for 24 hours beginning at 2 dpf
[4] = exposure for 24 hours beginning at 2–4 cell stage
[5] = exposure for 24 hours beginning at 3 dpf
[6] = exposure for 24 hours beginning at 4 dpf
[7] = exposure for 24 hours beginning at 4 hpf
[8] = exposure for 24 hours beginning at 5 dpf
[9] = exposure for 24 hours beginning at 7 dpf
[10] = exposure from 1 dpf, at the concentration in parentheses
[11] = exposure from 2 dpf, at the concentration in parentheses
[12] = exposure from 3 dpf, at the concentration in parentheses
[13] = exposure from 4 dpf, at the concentration in parentheses
[14] = exposure from 5 dpf, at the concentration in parentheses
[15] = exposure from 7 dpf, at the concentration in parentheses

Compound	Lowest concentration at which an average penetrance of at least 50% was observed for the phenotypic effects (24 hours exposure from 1 dpf) [%]	Lowest concentration at which an average penetrance of at least 50% was observed for the phenotypic effects (24 hours exposure from 2 dpf) [%]	Lowest concentration at which an average penetrance of at least 50% was observed for the phenotypic effects [1] [%]	Lowest concentration at which an average penetrance of at least 50% was observed for the phenotypic effects (24 hours exposure from 3 dpf) [%]	Lowest concentration at which an average penetrance of at least 50% was observed for the phenotypic effects (24 hours exposure from 4 dpf) [%]	Lowest concentration at which an average penetrance of at least 50% was observed for the phenotypic effects (24 hours exposure from 4 hpf) [%]	Lowest concentration at which an average penetrance of at least 50% was observed for the phenotypic effects (24 hours exposure from 5 dpf) [%]	Lowest concentration at which an average penetrance of at least 50% was observed for the phenotypic effects (24 hours exposure from 7 dpf) [%]	Maximum-tolerated concentration (MTC) [2] [%]	Maximum-tolerated concentration (MTC) [3] [%]	Maximum-tolerated concentration (MTC) [4] [%]	Maximum-tolerated concentration (MTC) [5] [%]	Maximum-tolerated concentration (MTC) [6] [%]	Maximum-tolerated concentration (MTC) [7] [%]	Maximum-tolerated concentration (MTC) [8] [%]	Maximum-tolerated concentration (MTC) [9] [%]	Phenotypic effects above MTC after 24 hours (average penetrance at least 50%) [10]	Phenotypic effects above MTC after 24 hours (average penetrance at least 50%) [11]	Phenotypic effects above MTC after 24 hours (average penetrance at least 50%) [12]	Phenotypic effects above MTC after 24 hours (average penetrance at least 50%) [13]	further results
CCO [Ethanol, ethanol]	2	2	1.5	2	2	1.5	2.5	1.5	1	1.5	1	1	1.5	0.5	0.5	1	–	–	–	–	–
CN(C)C=O [Dimethyl formamide (DMF), Dimethyl formamide]	0.5	1	1	1	1	1	1.5	0.5	<0.5	0.5	0.5	0.5	0.5	<0.5	0.5	<0.5	AP BH IC IM NB PE	AP HJ PE	HJ IC PE	AP LP	Phenotypic effects above MTC after 24 hours (average penetrance at least 50%) (exposure from 4 hpf, at the concentration in parentheses): AP BC BS CF PE; Phenotypic effects above MTC after 24 hours (average penetrance at least 50%) [14]: IM LP PE SB; Phenotypic effects above MTC after 24 hours (average penetrance at least 50%) [15]: HO LP; MTC / tolerated concentration (over all or most developmental stages analyzed, 24-hour exposure): ≤ 0.5%
CCC(C)=O [Butanone (MEK), 2-butanone]	2	2.5	–	2	–	–	–	–	1	1.5	0.5	1.5	1.5	1	<0.5	0.5	IC MC PE	DD HJ	HJ SB	–	Maximum-tolerated concentration (MTC) (exposure for 24 hours beginning at 2–4 cell stage, listed as butanone): ≤ 0.5%; Maximum-tolerated concentration (MTC) (exposure for 24 hours beginning at 5 dpf, listed as butanone): ≤ 0.5%; Maximum-tolerated concentration (MTC) (exposure for 24 hours beginning at 7 dpf, listed as butanone): ≤ 0.5%
Albumin (BSA): bovine serum albumin (BSA), carrier	–	–	0.5	1.5	1.5	0.5	–	–	<0.5	0.5	<0.5	0.5	–	<0.5	≥2.5	≥2.5	–	–	–	IC PE	Delay in development relative to control (0.5% from 4-cell stage, embryos at 1 dpf, morphologically normal): up to 9 hours; Maximum-tolerated concentration (MTC) (exposure for 24 hours beginning at 5 dpf, listed as BSA): ≥ 2.5%; Maximum-tolerated concentration (MTC) (exposure for 24 hours beginning at 7 dpf, listed as BSA): ≥ 2.5%
CO [Methanol, methanol]	–	–	2	2.5	–	2	–	2.5	1.5	>2.5	1.5	2	1	1.5	>2.5	2	–	–	–	–	Phenotypic effects above MTC after 24 hours (average penetrance at least 50%) (in vivo): NB LP
CC(C)O [Isopropanol, isopropanol]	1	2	–	2	–	1.5	–	1	0.5	1	0.5	1.5	0.5	1	<0.5	0.5	AP IC	IC LP	BC IC IM HJ PE	–	Phenotypic effects above MTC after 24 hours (average penetrance at least 50%) [15]: IC LP NB PE
CC1(C)OCC(CO)O1 (stereo not shown) [Solketal]	1	1	–	1	0.5	1	0.5	0.5	0.5	0.5	<0.5	0.5	<0.5	0.5	<0.5	<0.5	AP BH IC IM NB PE	AP BH IC PE	AH IC IM HJ PE	BC LP	Maximum-tolerated concentration (MTC) (exposure for 24 hours beginning at 2–4 cell stage, listed as solketal): < 0.5%; Phenotypic effects above MTC after 24 hours (average penetrance at least 50%) [14]: NB LP SB+; Phenotypic effects above MTC after 24 hours (average penetrance at least 50%) [15]: NB LP
